Assay [1] deals with T1, catalytic domain of USP2 (USP2CD) (Homo sapiens, UniProt O75604).
T1 construct: The purified catalytic domain of USP2 (USP2CD, in-house purified) was used; made in house
T1 sequence (O75604 267-599 limits assumed): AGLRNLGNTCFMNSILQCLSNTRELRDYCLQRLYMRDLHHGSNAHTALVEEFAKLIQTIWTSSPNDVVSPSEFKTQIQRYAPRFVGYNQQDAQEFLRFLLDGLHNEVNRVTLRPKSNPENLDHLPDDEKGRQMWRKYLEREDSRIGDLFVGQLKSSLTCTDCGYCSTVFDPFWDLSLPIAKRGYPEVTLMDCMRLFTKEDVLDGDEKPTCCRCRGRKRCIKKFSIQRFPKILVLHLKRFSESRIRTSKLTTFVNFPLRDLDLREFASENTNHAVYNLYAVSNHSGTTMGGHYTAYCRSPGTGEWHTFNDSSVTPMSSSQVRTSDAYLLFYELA
Put plainly: USP2 CD inhibition (Ub-Rho). Format: biochemical. Conditions: USP2CD 16 nM. On the procedure:
The purified catalytic domain of USP2 (USP2CD, in-house purified) was used at a concentration of 16 nM in the presence of the artificial substrate Ub-Rho. Inhibition assays were performed as described above.

A further assay concerns the target T2, USP8CD (Homo sapiens, UniProt P40818).
T2 construct: an in-house purified catalytic domain of USP8 (USP8CD) was used at a concentration of 80 nM; made in house
T2 sequence (P40818 777-1109 limits assumed): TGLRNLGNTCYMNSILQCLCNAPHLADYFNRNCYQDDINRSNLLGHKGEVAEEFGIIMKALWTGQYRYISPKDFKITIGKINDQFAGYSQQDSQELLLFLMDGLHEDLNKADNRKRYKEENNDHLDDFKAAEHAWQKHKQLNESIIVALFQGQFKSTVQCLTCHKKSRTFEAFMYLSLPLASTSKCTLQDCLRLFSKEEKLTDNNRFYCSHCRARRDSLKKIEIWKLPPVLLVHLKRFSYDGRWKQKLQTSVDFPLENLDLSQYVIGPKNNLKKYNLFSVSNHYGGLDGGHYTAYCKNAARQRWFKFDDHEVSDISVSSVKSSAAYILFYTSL
Put plainly: Reversibility (dilution / gel filtration) assay of USP8 inhibition. Format: biochemical. Conditions: USP8CD 60 nM, activity before and after gel column filtration. On the procedure: DUB activity relies on a conserved catalytic cysteine residue which is particularly sensitive to irreversible oxidation by reactive oxygen species (ROS) (Lee et al., 2013). […] In this setup, purified USP8CD was used at a concentration of 60 nM and incubated for 20 min with either the inhibitory compound or with DMSO in buffered conditions. The catalytic activity of each mix was monitored on Ub-Rho substrate (Ubiquigent ref. 60-0117-050) used at a final concentration of 0.1 μM before and after filtration on a gel column (Millipore UFC30GV25). If a catalytic activity is detected after column filtration, the compound is a reversible inhibitor.
(In general: In gel filtration, larger molecules generally elute earlier.)

Turning to `Cc1cc(C(C#N)c2ccc(Cl)cc2)c(Cl)cc1NC(=O)c1cc(I)cc(I)c1O` (centres unmarked) [Closantel, reference compound], in assay [1], the “activity against USP2CD” value is reported as “active”. The “reversibility of USP8 inhibition” value on USP8CD is reported as “reversible”.

These data come from patent publication US20260207535A1, “CRIBLAGE INHIBITEURS USP8” (COMMISSARIAT A L'ENERGIE ATOMIQUE ET AUX ENERGIES …, priority 2022, published 2026).
